# Legend:
# [1] = target: T1, human TLR8 (Homo sapiens, UniProt Q9NR97); assay: HEK293-Blue-hTLR-8 cells assay (SEAP reporter, R848 stimulation); assay type: cell-based; details: HEK293-Blue-hTLR8 cells, R848, 20 hrs; read-out: HEK/hTLR8 IC50
# T1 construct: host or cells: HEK293 (HEK-Blue hTLR8)
# T1 sequence (Q9NR97 27-1041): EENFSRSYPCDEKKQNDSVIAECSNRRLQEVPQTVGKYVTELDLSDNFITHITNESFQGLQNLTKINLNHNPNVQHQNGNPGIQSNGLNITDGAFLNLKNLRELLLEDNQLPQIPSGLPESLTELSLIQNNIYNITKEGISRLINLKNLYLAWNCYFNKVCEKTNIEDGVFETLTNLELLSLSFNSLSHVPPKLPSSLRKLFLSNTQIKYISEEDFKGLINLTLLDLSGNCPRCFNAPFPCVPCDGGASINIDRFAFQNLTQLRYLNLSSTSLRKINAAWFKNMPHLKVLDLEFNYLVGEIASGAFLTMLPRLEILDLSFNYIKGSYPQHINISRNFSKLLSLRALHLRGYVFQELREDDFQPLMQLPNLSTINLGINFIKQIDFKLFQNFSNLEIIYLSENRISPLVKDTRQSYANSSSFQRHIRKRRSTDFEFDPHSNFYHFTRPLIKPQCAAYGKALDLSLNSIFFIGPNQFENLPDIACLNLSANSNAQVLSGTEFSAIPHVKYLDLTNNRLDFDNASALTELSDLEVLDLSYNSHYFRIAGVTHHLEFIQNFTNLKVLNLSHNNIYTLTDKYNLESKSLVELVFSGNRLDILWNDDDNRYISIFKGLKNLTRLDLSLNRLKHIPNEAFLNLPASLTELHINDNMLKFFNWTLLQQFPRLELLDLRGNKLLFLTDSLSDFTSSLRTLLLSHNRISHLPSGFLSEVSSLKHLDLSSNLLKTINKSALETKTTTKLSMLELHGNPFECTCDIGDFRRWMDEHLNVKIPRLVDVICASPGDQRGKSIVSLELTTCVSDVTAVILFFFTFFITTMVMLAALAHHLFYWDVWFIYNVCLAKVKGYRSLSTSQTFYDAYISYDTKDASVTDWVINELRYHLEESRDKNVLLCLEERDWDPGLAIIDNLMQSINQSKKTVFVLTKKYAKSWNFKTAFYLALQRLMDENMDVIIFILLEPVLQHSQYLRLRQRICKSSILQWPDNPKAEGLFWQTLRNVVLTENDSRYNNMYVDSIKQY
# Method: The following tests were carried out in order to determine the activity of the compounds of formula (I) and (Ia) in HEK293-Blue-hTLR-7/8/9 cells assay.
# A stable HEK293-Blue-hTLR-8 cell line was purchased from InvivoGen (Cat. #: hkb-htlr8, San Diego, California, USA). These cells were originally designed for studying the stimulation of human TLR8 by monitoring the activation of NF-κB. A SEAP (secreted embryonic alkaline phosphatase) reporter gene was placed under the control of the IFN-β minimal promoter fused to five NF-κB and AP-1-binding sites. The SEAP was induced by activating NF-κB and AP-1 via stimulating HEK-Blue hTLR8 cells with TLR8 ligands. Therefore the reporter expression was declined by TLR8 antagonist under the stimulation of a ligand, such as R848, for incubation of 20 hrs. The cell culture supernatant SEAP reporter activity was determined using QUANTI-Blue™ kit (Cat. #: rep-qb1, Invivogen, San Diego, Ca, USA) at a wavelength of 640 nm, a detection medium that turns purple or blue in the presence of alkaline phosphatase.
# HEK293-Blue-hTLR8 cells were incubated at a density of 250,000˜450,000 cells/mL in a volume of 170 μL in a 96-well plate in Dulbecco's Modified Eagle's medium (DMEM) containing 4.5 g/L glucose, […] penicillin, […], […] Normocin, 2 mM L-glutamine, 10% (v/v) heat-inactivated fetal bovine serum with addition of 20 μL test compound in a serial dilution in the presence of final DMSO at 1% and 10 μL of 60 uM R848 in above DMEM, perform incubation under 37° C. in a C02 incubator for 20 hrs. Then 20 μL of the supernatant from each well was incubated with 180 μL Quanti-blue substrate solution at 37° C. for 2 hrs and the absorbance was read at 620-655 nm using a spectrophotometer. The signaling pathway that TLR8 activation leads to downstream NF-κB activation has been widely accepted, and therefore similar reporter assay was modified for evaluating TLR8 antagonist.
# [2] = Human microsome stability assay; assay type: in vitro ADME; details: 1 μM test compound, 0.5 mg/mL liver microsomal protein, 37° C., pH 7.4
# Method: The human microsomal stability assay is used for early assessment of metabolic stability of a test compound in human liver microsomes.
# Human liver microsomes (Cat. NO.: 452117, Corning, USA; Cat. NO.: H2610, Xenotech, USA) were preincubated with test compound for 10 minutes at 37° C. in 100 mM potassium phosphate buffer, pH 7.4. The reactions were initiated by adding NADPH regenerating system. The final incubation mixtures contained 1 μM test compound, 0.5 mg/mL liver microsomal protein, 1 mM MgCl2, 1 mM NADP, 1 unit/mL isocitric dehydrogenase and 6 mM isocitric acid in 100 mM potassium phosphate buffer, pH 7.4. After incubation times of 0, 3, 6, 9, 15 and 30 minutes at 37° C., 300 μL of cold acetonitrile (including internal standard) was added to 100 μL incubation mixture to terminate the reaction. Following precipitation and centrifugation, the amount of compound remaining in the samples were determined by LC-MS/MS. Controls of no NADPH regenerating system at zero and 30 minutes were also prepared and analyzed.
SMILES,IC50 [1] [nM],Clearance of Human microsome [2] [mL/min/kg]
"C[C@H]1CN(c2ccnc3c2cnn3C)Cc2ccc(N3CC4(CCNC4)OC3=O)cc21 (stereo partly drawn) [Example 35, 3-[(4R)-4-methyl-2-(1-methylpyrazolo[3,4-b]pyridin-4-yl)-3,4-dihydro-1H-isoquinolin-6-yl]-1-oxa-3,7-diazaspiro[4.4]nonan-2-one]",14,8.4
"C[C@H]1CN(c2ccnc3c2cnn3C)Cc2ccc(N3C4CCC3CNC4)cc21 [Example 27, (4R)-6-(3,8-diazabicyclo[3.2.1]octan-8-yl)-4-methyl-2-(1-methylpyrazolo[3,4-b]pyridin-4-yl)-3,4-dihydro-1H-isoquinoline]",3,6.2
"Cc1cc(N2Cc3cnc(N4CC[C@@H](N)[C@H](F)C4)cc3[C@@H](C)C2)c2cnn(C)c2n1 [Example 80, (3R,4R)-3-fluoro-1-[(5R)-7-(1,6-dimethylpyrazolo[3,4-b]pyridin-4-yl)-5-methyl-6,8-dihydro-5H-2,7-naphthyridin-3-yl]piperidin-4-amine]",34,6.2
"Cc1cc(N2Cc3cnc(N4CC5(CNCCO5)C4)cc3[C@@H](C)C2)c2cnn(C)c2n1 [Example 79, 2-[(5R)-7-(1,6-dimethylpyrazolo[3,4-b]pyridin-4-yl)-5-methyl-6,8-dihydro-5H-2,7-naphthyridin-3-yl]-5-oxa-2,8-diazaspiro[3.5]nonane]",23,8.0
"CCn1ncc2c(N3Cc4ccc(N5CCNCC5)cc4[C@@H](C)C3)ccnc21 [Example 22, (4R)-2-(1-ethylpyrazolo[3,4-b]pyridin-4-yl)-4-methyl-6-piperazin-1-yl-3,4-dihydro-1H-isoquinoline]",16,6.2
"C[C@H]1CN(c2ccnc3c2cnn3C)Cc2ccc(N3CCN(C(=O)C4CCNCC4)CC3)cc21 [Example 7, 4-piperidyl-[4-[(4R)-4-methyl-2-(1-methylpyrazolo[3,4-b]pyridin-4-yl)-3,4-dihydro-1H-isoquinolin-6-yl]piperazin-1-yl]methanone]",17,10.3
"Cn1ncc2c(N3CCc4cc(N5CCNCC5)ccc4C3)ccnc21 [Example 3, 2-(1-methylpyrazolo[3,4-b]pyridin-4-yl)-6-piperazin-1-yl-3,4-dihydro-1H-isoquinoline]",56,9.5
"C[C@H]1CN(c2ccnc3c2cnn3C)Cc2ccc(N3CC4(CNCCO4)C3)cc21 [Example 21, 2-[(4R)-4-methyl-2-(1-methylpyrazolo[3,4-b]pyridin-4-yl)-3,4-dihydro-1H-isoquinolin-6-yl]-5-oxa-2,8-diazaspiro[3.5]nonane]",14,10.1
"C[C@H]1CN(c2ccnc3c2cnn3C)Cc2ccc(OC[C@H]3CNCCN3)cc21 [Example 18, (4R)-4-methyl-2-(1-methylpyrazolo[3,4-b]pyridin-4-yl)-6-[[(2R)-piperazin-2-yl]methoxy]-3,4-dihydro-1H-isoquinoline]",4,10.5
"Cc1cc(N2Cc3ccc(N4CCOC5(CNC5)C4)nc3[C@@H](C)C2)c2cnn(C)c2n1 [Example 70, 8-[(8S)-6-(1,6-dimethylpyrazolo[3,4-b]pyridin-4-yl)-8-methyl-7,8-dihydro-5H-1,6-naphthyridin-2-yl]-5-oxa-2,8-diazaspiro[3.5]nonane]",28,8.1

# Other lines, results leading:
IC50 [1] [nM],Clearance of Human microsome [2] [mL/min/kg],SMILES
3,6.2,"Cc1cc(N2Cc3ccc(N4C[C@@H](N)[C@H](O)C4)cc3[C@@H](C)C2)c2cnn(C)c2n1 [Example 47, trans-4-amino-1-[(4R)-2-(1,6-dimethylpyrazolo[3,4-b]pyridin-4-yl)-4-methyl-3,4-dihydro-1H-isoquinolin-6-yl]pyrrolidin-3-ol]"
1,9.0,"Cc1cc(N2Cc3ccc(N4CCNCC4)cc3[C@@H](C)C2)c2cnn(C)c2n1 [Example 2, (4R)-2-(1,6-dimethylpyrazolo[3,4-b]pyridin-4-yl)-4-methyl-6-piperazin-1-yl-3,4-dihydro-1H-isoquinoline]"
2,9.2,"Cc1cc(N2Cc3cnc(N4CCNCC4)cc3[C@@H](C)C2)c2cnn(C)c2n1 [Example 74, (4R)-2-(1,6-dimethylpyrazolo[3,4-b]pyridin-4-yl)-4-methyl-6-piperazin-1-yl-3,4-dihydro-1H-2,7-naphthyridine]"
11,9.9,"C[C@H]1CN(c2ccnc3c2cnn3C)Cc2ccc(N3CCN(c4cc5c(cn4)CCNC5)CC3)cc21 [Example 9, 7-[4-[(4R)-4-methyl-2-(1-methylpyrazolo[3,4-b]pyridin-4-yl)-3,4-dihydro-1H-isoquinolin-6-yl]piperazin-1-yl]-1,2,3,4-tetrahydro-2,6-naphthyridine]"
2,6.3,"CO[C@H]1CN(c2cc3c(cn2)CN(c2cc(C)nc4c2cnn4C)C[C@@H]3C)CC[C@@H]1N [Example 73, (3S,4S)-3-methoxy-1-[(5R)-7-(1,6-dimethylpyrazolo[3,4-b]pyridin-4-yl)-5-methyl-6,8-dihydro-5H-2,7-naphthyridin-3-yl]piperidin-4-amine]"
9,8.1,"Cc1cc(N2Cc3ccc(N4C[C@@H](F)[C@@H](N)C4)nc3[C@@H](C)C2)c2cnn(C)c2n1 [Example 69, (3S,4R)-4-fluoro-1-[(8S)-6-(1,6-dimethylpyrazolo[3,4-b]pyridin-4-yl)-8-methyl-7,8-dihydro-5H-1,6-naphthyridin-2-yl]pyrrolidin-3-amine]"
1,10.5,"Cc1cc(N2Cc3ccc(N4CCN(C)CC4)nc3[C@@H](C)C2)c2cnn(C)c2n1 [Example 67, (8S)-6-(1,6-dimethylpyrazolo[3,4-b]pyridin-4-yl)-8-methyl-2-(4-methylpiperazin-1-yl)-7,8-dihydro-5H-1,6-naphthyridine]"
< 0.3,6.2,"C[C@H]1CN(c2ccnc3c2cnn3C)Cc2ccc(N3CCC(N4CC(N)C4)CC3)cc21 [Example 28, 1-[1-[(4R)-4-methyl-2-(1-methylpyrazolo[3,4-b]pyridin-4-yl)-3,4-dihydro-1H-isoquinolin-6-yl]-4-piperidyl]azetidin-3-amine]"
